Source: ChEMBL document CHEMBL5058564, “EUbOPEN Chemogenomics Library 2 (Incucyte)” (2022)

Columns and labels:
Format in all cases: toxicity, cell-based
U2OS = test: Incucyte cell viability with U2OS; details: human, 10 µM, compound concentration 10 uM
Fibroblast = test: Incucyte cell viability with human fibroblast; details: 10 µM, compound concentration 10 uM
HEK-293T = test: Incucyte cell viability with HEK293T; details: human, 10 µM, compound concentration 10 uM
[1] = 6 h, replicate number 1, timepoint 6 hours
[2] = 6 h, replicate number 2, timepoint 6 hours
[3] = 12 h, replicate number 1, timepoint 12 hours
[4] = 12 h, replicate number 2, timepoint 12 hours
[5] = 18 h, replicate number 1, timepoint 18 hours
[6] = 18 h, replicate number 2, timepoint 18 hours
[7] = 24 h, replicate number 1, timepoint 24 hours
[8] = 24 h, replicate number 2, timepoint 24 hours
[9] = 0 h, replicate number 1, timepoint 0 hours
[10] = 0 h, replicate number 2, timepoint 0 hours
Further: unitless GR value; below 1 slowed growth and below 0 cell loss.

Row | SMILES | Growth Rate (U2OS; [1]) | Growth Rate (U2OS; [2]) | Growth Rate (U2OS; [4]) | Growth Rate (U2OS; [5]) | Growth Rate (U2OS; [6]) | Growth Rate (U2OS; [7]) | Growth Rate (U2OS; [8]) | Growth Rate (Fibroblast; [2]) | Growth Rate (Fibroblast; [4]) | Growth Rate (Fibroblast; [5]) | Growth Rate (Fibroblast; [7]) | Growth Rate (HEK-293T; [1]) | Growth Rate (HEK-293T; [3]) | Growth Rate (HEK-293T; [5]) | Growth Rate (HEK-293T; [7]) | Growth Rate (Fibroblast; [1]) | Growth Rate (Fibroblast; [3]) | Growth Rate (HEK-293T; [2]) | Growth Rate (HEK-293T; [4]) | Growth Rate (HEK-293T; [6]) | also measured
1 | CO[C@H]1CC[C@@H](C(=O)c2ccc3nc4c(cc3c2)CCCO4)CC1 | -0.12 | 0.55 | 0.67 | 0.36 | 0.74 | 0.74 | 0.78 | 0.07 | 0.87 | 0.79 | 0.48 | 0.72 | 0.84 | 0.59 | 0.73 | – | – | – | – | – | Growth Rate (U2OS; [3]): 0.27; Growth Rate (Fibroblast; [9]): 0.96
2 | CC(C)OC(=O)N1CCC(Oc2ncnc3c2cnn3-c2ccc(S(C)(=O)=O)cc2F)CC1 | – | 0.7 | – | – | – | – | 0.97 | – | 0.61 | 0.38 | 0.47 | 0.81 | 0.82 | 0.98 | – | 0.15 | 0.04 | – | – | – | Growth Rate (U2OS; [10]): -1; Growth Rate (Fibroblast; [9]): 0.77; Growth Rate (Fibroblast; [10]): -0.13; Growth Rate (Fibroblast; [6]): 0.58; Growth Rate (Fibroblast; [8]): 0.69
3 | COc1ccncc1C(=O)NC(=O)Nc1ccc(-c2ccccc2)c(C(F)(F)F)c1 | – | 0.74 | – | – | 0.94 | – | 1 | 0.15 | – | 0.7 | 0.92 | 0.25 | 0.48 | 0.58 | 0.69 | -0.12 | 0.58 | 0.96 | 0.74 | 0.86 | Growth Rate (Fibroblast; [9]): 0.48; Growth Rate (Fibroblast; [10]): 0.72
4 | Cn1cnc(-c2cc3nccc(Oc4ccc(NC(=S)NC(=O)Cc5ccccc5)cc4F)c3s2)c1 | – | – | 0.95 | – | 0.93 | – | 0.98 | -0.42 | 0.3 | 0.43 | 0.31 | -0.37 | -0.02 | 0.28 | 0.6 | 0.43 | -0.11 | -0.26 | 0.34 | 0.64 | Growth Rate (U2OS; [9]): -0.11; Growth Rate (U2OS; [10]): -0.99; Growth Rate (Fibroblast; [10]): 0.94; Growth Rate (Fibroblast; [6]): 0.77; Growth Rate (HEK-293T; [8]): 0.99
5 | COc1ncc2cc(C(=O)Nc3cc(C(=O)NCc4cccc(Cl)c4)ccc3Cl)c(=O)[nH]c2n1 | 0.36 | 0.28 | 0.69 | 0.51 | 0.67 | 0.75 | 0.69 | -0.3 | 0.41 | 0.51 | 0.76 | 0.48 | 0.55 | 0.64 | 0.66 | -0.08 | 0.48 | 0.93 | 0.83 | 0.9 | Growth Rate (Fibroblast; [9]): 0.34; Growth Rate (Fibroblast; [10]): 0.82; Growth Rate (HEK-293T; [8]): 0.93
6 | C[C@@](Cc1c[nH]c2ccccc12)(NC(=O)Nc1ccc([N+](=O)[O-])cc1)C(=O)NCC1(c2ccccn2)CCCCC1 | 0.28 | 0.12 | -0.2 | -0.21 | -0.3 | -0.26 | -0.21 | -0.88 | -0.59 | -0.63 | -0.6 | -0.16 | -0.39 | -0.33 | -0.26 | -0.69 | -0.66 | -0.01 | -0.14 | -0.15 | Growth Rate (U2OS; [9]): 0.29; Growth Rate (U2OS; [3]): -0.03; Growth Rate (Fibroblast; [6]): -0.53; Growth Rate (Fibroblast; [8]): -0.51; Growth Rate (HEK-293T; [8]): -0.13
7 | Cn1cc(C(=O)OCC2CCN(CCNS(C)(=O)=O)CC2)c2ccccc21 | – | 0.45 | 0.95 | – | 0.89 | – | – | – | 0.4 | 0.33 | 0.43 | 0.81 | 0.43 | 0.29 | 0.35 | -0.25 | 0.1 | – | – | – | Growth Rate (Fibroblast; [9]): 0.81; Growth Rate (Fibroblast; [8]): 0.82; Growth Rate (HEK-293T; [8]): 0.96
8 | Nc1nc(-c2ccco2)c2cnn(Cc3ccccc3F)c2n1 | 0.66 | 0.28 | 0.27 | 0.95 | 0.48 | 0.89 | 0.48 | -0.89 | -0.55 | -0.75 | -0.66 | -0.23 | -0.22 | -0.17 | -0.12 | -0.86 | -0.81 | -0.21 | -0.25 | -0.05 | Growth Rate (U2OS; [9]): -0.81; Growth Rate (Fibroblast; [6]): -0.29; Growth Rate (Fibroblast; [8]): -0.09; Growth Rate (HEK-293T; [8]): 0.12
9 | CC[S+]([O-])c1nc(-c2cccc(OCc3ccccc3)c2)cc(C(F)(F)F)n1 (configuration not stated) | -0.91 | -0.17 | -0.16 | -0.19 | 0.03 | -0.09 | 0.16 | -0.73 | -0.52 | -0.48 | -0.4 | -0.65 | -0.45 | -0.27 | -0.13 | -0.79 | -0.65 | -0.82 | -0.65 | -0.43 | Growth Rate (U2OS; [10]): -1; Growth Rate (U2OS; [3]): -0.48; Growth Rate (Fibroblast; [8]): -0.5; Growth Rate (HEK-293T; [8]): -0.24
10 | O=C(NCc1ccc(F)cc1)N1CCN2C(=O)OC(c3ccccc3)(c3ccccc3)C2C1 (configuration not stated) | 0.37 | 0.99 | – | – | 0.99 | – | 0.97 | 0.42 | – | – | 0.67 | 0.88 | – | 1 | 0.92 | – | – | – | – | – | Growth Rate (Fibroblast; [9]): -0.48; Growth Rate (Fibroblast; [10]): 0.83
11 | CCN1C(=CC(C)=O)Sc2ccc(OC)cc21 | 0.65 | – | 0.88 | 0.63 | – | 0.89 | – | – | – | 0.69 | 0.7 | 0.17 | 0.45 | 0.69 | 0.72 | -0.68 | 0.45 | – | – | – | Growth Rate (U2OS; [9]): -0.04; Growth Rate (U2OS; [10]): -0.03; Growth Rate (U2OS; [3]): 0.7; Growth Rate (Fibroblast; [10]): 0.29; Growth Rate (HEK-293T; [10]): -1
12 | O=C(Nc1cc(-c2cn[nH]c2)ccc1N1CCOCC1)c1ccc(-c2ccc3ncccc3c2)o1 | 0.9 | – | – | 0.57 | 0.39 | 0.7 | 0.26 | – | 0.89 | 0.43 | 0.3 | -0.01 | -0.14 | 0 | 0.15 | – | 0.82 | 0.26 | 0.02 | 0.07 | Growth Rate (U2OS; [9]): 0.53; Growth Rate (U2OS; [3]): 0.6; Growth Rate (Fibroblast; [9]): 0.62; Growth Rate (Fibroblast; [10]): -0.67; Growth Rate (Fibroblast; [6]): 0.89; Growth Rate (Fibroblast; [8]): 0.83; Growth Rate (HEK-293T; [10]): 0.28; Growth Rate (HEK-293T; [8]): 0.04
13 | CC(=O)c1ccc2c(c1)[C@@H]1C=CC[C@@H]1[C@H](c1cc3c(cc1Br)OCO3)N2 | – | 0 | -0.23 | 0.03 | -0.33 | -0.17 | -0.31 | -0.8 | -0.47 | -0.76 | -0.54 | -0.31 | 0.01 | -0.14 | -0.12 | -0.85 | -0.78 | -0.36 | -0.05 | -0.06 | Growth Rate (U2OS; [9]): 0.33; Growth Rate (U2OS; [3]): 0.01; Growth Rate (Fibroblast; [6]): -0.23; Growth Rate (Fibroblast; [8]): -0.18; Growth Rate (HEK-293T; [8]): -0.02
